Assay results reported in patent US7018457B2, “Azo metal-complexed dyes, ink jet ink compositions and ink jet printing methods” (Polaroid Corporation, priority 2002, dated 2006).

How the values were obtained:
Type in all cases: physicochemical
[1] = Light stability of dye coatings on receiver papers, Xenon arc at 10,000 ft. candles; conditions: for % Density Loss (Y) after 5 Day Xe Arc, Epson / % Density Loss (Y) after 5 Day Xe Arc, Kodak / % Density Loss (Y) after 5 Day Xe Arc, Watercolor: 5 days
Method: (§1) Experiments were carried out with Kodak® Premium Glossy Paper (available from Eastman Kodak Company, Rochester, N.Y.), Epson Premium Glossy Photo Paper (available from Epson Corporation) and Somerset Radiant White watercolor paper (a 100% cotton fiber paper with little or no sizing).
(§2) The dye samples were prepared by initially making a concentrated ink jet fluid (Fluid A) with 35.2% 1,5-pentanediol, 24.8% 2-pyrollidinone, 20% trimethylolpropane and 20% water (by weight). Two parts by weight of Fluid A were diluted with eight parts of water to form Fluid B consisting of approximately 7% 1,5-pentanediol, 5% 2-pyrollidinone, 4% trimethylolpropane and 84% water.
(§3) The test fluids were prepared by dissolving approximately 20 mg of dye with heating and vortex stirring into 1 gram of Fluid B. Once a clear fluid was obtained, the fluid was coated on the ink jet receiver material with a #4 Meyer rod. The coating was dried and the reflection density was measured. When the density was not in the range of from 0.7 to 1.3 the test fluid was diluted with additional Fluid B and the coatings repeated until the reflection density was in the range specified above.
(§4) Samples of the dyes were applied to the papers in a thin film as described above, air dried and the sample exposed in a Xenon arc at 10,000 ft. candles and also to cool white fluorescent bulbs with an irradiance of 2,500 ft. candles.
This example illustrates the light stability of the dyes of formulas V–XV in xenon arc testing. The tests were carried out as described in Example II.
The ozone tests were conducted in an ozone chamber constructed from a large Pyrex jar having a volume of approximately 1.2 ft.^3 and a low temperature mercury-argon lamp (Oriel 6035). Ozone was produced in situ by the direct photolysis of oxygen in the ambient air within the chamber. A fan in the chamber ensured that all the samples were uniformly exposed to the ozone. The lamp power supply was energized under the control of a timer such that the lamp was on for 15 minutes every two hours thereby producing an average ozone concentration of about 10 PPM (24 mg/m^3). The test was carried out for 16 hours, or 8 lamp cycles. The ozone tests were carried out on Epson paper. The light stability experiments were carried out for 5 days at […] on Kodak Glossy Paper.

[2] = Light stability of dye coatings on receiver papers, cool white fluorescent bulbs at 2,500 ft. candles; conditions: cool white fluorescent 2,500 ft. candles
Method: as §1, §2, §3, §4

[3] = Ozone stability of dye coatings in an ozone chamber; conditions: Epson paper; about 10 PPM ozone; 16 hours, 8 lamp cycles

Compound	% Density Loss (Y) after 5 Day Xe Arc, Epson ([1]; Table IV, Epson paper, Xenon arc as in Example II) [%]	% Density Loss (Y) after 5 Day Xe Arc, Kodak ([1]; Table IV, Kodak paper, Xenon arc as in Example II) [%]	% Density Loss (Y) after 5 Day Xe Arc, Watercolor ([1]; Table IV, watercolor paper, Xenon arc as in Example II) [%]	% Density Loss (Y) after 5 Day Xe Arc, Epson ([1]; Epson Premium Glossy Photo Paper, Xenon arc 10,000 ft. candles) [%]	% Loss in Density, Light ([1]; Kodak Glossy Paper, 5 days at 10,00 ft. candles) [%]	% Density Loss (Y) after 5 Day Xe Arc, Kodak ([1]; Kodak Premium Glossy Paper, Xenon arc 10,000 ft. candles) [%]	% Density Loss (Y) after 5 Day Xe Arc, Watercolor ([1]; Somerset Radiant White watercolor paper, Xenon arc 10,000 ft. candles) [%]	% Density Loss after 3 weeks under fluorescent light, Epson ([2]; Epson paper) [%]	% Density Loss after 3 weeks under fluorescent light, Kodak ([2]; Kodak paper) [%]	% Density Loss after 3 weeks under fluorescent light, Watercolor ([2]; watercolor paper) [%]	% Loss in Density, Ozone [3] [%]
Cc1nn(-c2ccc(S(=O)(=O)[O-])cc2)c2c1N=Nc1ccc(S(=O)(=O)[O-])cc1C(=O)[O][Co][O]2.O.[Na+].[Na+] [VI]	17	−52	−19								
Cc1nn(-c2ccc(S(=O)(=O)[O-])cc2)c(O)c1N=Nc1ccc(S(=O)(=O)[O-])cc1C(=O)[O-].[Na+].[Na+].[Na+] [Control, 2-[5-hydroxy-3-methyl-1-(4-sulfophenyl)-1H-pyrazol-4-ylazo]-5-sulfobenzoic acid sodium salt]				−7	−90	−85	−23	1	−51	−7	−29
